In patent US11725015B2, “Macrocyclic compound and uses thereof” (President and Fellows of Harvard College, priority 2017, dated 2023):

Columns and labels:
[1] = test system: human breast cancer cell line HCC1954; assay: HCC1954 growth inhibition assay; type: cell-based; conditions: 3 days incubation, CellTiter-Glo
Method: In this assay, the growth inhibitory activity of test compounds in a human breast cancer cell line HCC1954 was measured. HCC1954 cells were maintained in an RPMI-1640 medium modified to contain 2 mM L-glutamine, 10 mM HEPES, 1 mM sodium pyruvate, 4500 mg/L glucose, and 1500 mg/L sodium bicarbonate (ATCC 30-2001) containing 10% fetal bovine serum (FBS: Nichirei, 12D168), and penicillin and streptomycin in a 5% CO2 incubator (37° C.). To each well of a 96 well plate (Becton, Dickinson and Company, 353219), 75 μL of HCC1954 cell suspension adjusted to a concentration of 4×10^4 cells/mL with the culture medium was added, and the cells were incubated overnight in a 5% CO2 incubator (37° C.). On the next day, 25 μL of Compound (1) or Halichondrin B in three-fold dilution series suspended in the culture medium was added to each well, and the resultant was incubated for 3 days in a 5% CO2 incubator (37° C.). Then, cell viability was determined by CellTiter-Glo® Luminescent Cell Viability Assay (Promega) with EnVision 2103 Multilabel Reader (Perkin-Elmer, Wellesley, Mass.). Value of the wells containing cells without adding the test compounds was defined as 100% and the value of the wells containing no cells was defined as 0%. The concentration of the test compound necessary for inhibiting the cell growth by 50% (i.e., an IC50 value) was calculated, and shown in Table 3.

[2] = test system: FaDu-Luc subcutaneous xenograft; assay: FaDu s.c. xenograft model in combination with radiation; type: in vivo, mice
Method: Luciferase-transduced FaDu-Luc cells were established by retrovirus-mediated gene transfer. […]. Then, helper-free recombinant retroviruses were produced by transfecting the above retroviral expression vector together with pGP and pE-Ampho plasmids (Takara Bio; Shiga, Japan), into 293T cells (ATCC; Manassas, USA). Next, FaDu cells were infected with the recombinant retroviruses, and were cultured for two weeks in the presence of puromycin (2 μg/mL). The infected cells were selected from a polyclonal proliferative population of the culture.
A luciferase-transduced human SCCHN cell line FaDu-Luc, which had been cultured in an RPMI-1640 medium containing 10% FBS, and penicillin and streptomycin, was adjusted to a concentration of 5×10^7 cells/mL with Hank's Balanced Salt Solution to prepare a cell suspension. The cell suspension was inoculated in a volume of 100 μL into a subcutaneous part of a right thigh of nude mice, 6 weeks of ages (CAnN.Cg-Foxnlnu/CrlCrlj, female, Charles River Laboratories Japan, Inc.). Thirteen days after the cell inoculation, the tumor volume was analyzed using bioluminescence signal from FaDu-Luc cells. […] The bioluminescence signal was monitored using the IVIS […] series (PerkinElmer, Waltham, Mass.), consisting of a highly sensitive, cooled chargecoupled device camera. […] Data were analyzed using total photon flux emission (photons/second) in the ROIs. […]

[3] = test system: microtubule dynamics in U2OS-EB3-AG osteosarcoma cell line; assay: Cell-based microtubule dynamics assay
Method: A cell-based microtubule (MT) dynamics assay was conducted with the U2OS-EB3-AG osteosarcoma cell line, in which the fusion protein of EB3 (a microtubule plus end binding protein) and Azami-Green (EB3-AG) was stably expressed. U2OS-EB3-AG cells were culture in RPMI-1640 medium containing 10% FBS, and penicillin-streptomycin, at 37° C. in a humidified 5% CO2 atmosphere. The MT dynamics in the live cells can be visualized as the movement of the comet-like structure of EB3-AG. U2OS-EB3-AG cells plated on glass-base culture plates (EZVIEW plate, AGC Techno Glass, Japan) were treated with Compound (1) at the indicated concentration and the microtubule dynamics were monitored by time-lapse imaging using fluorescent microscope with 60-fold magnification oil-immersed objective lens (BZ-X710, KEYENCE, Japan). Higher magnification views of the boxed areas were shown in inlets. When treated with Compound (1) at 0.5 nM (IC50 value for antiproliferative activity in U2OS-EB3-AG cells), the comet-like structures became hard to observe at around 60 minutes after the addition of the compound.

[4] = test system: TE-8 (human squamous cell carcinoma of the esophagus); assay: In vitro antiproliferative activity, TE-8; type: cell-based; conditions: TE-8, 72 hours
Method: The in vitro antiproliferative assays for Compound (1) were conducted using a small panel of cancer cell lines including human squamous cell carcinoma of the esophagus (OE21, TE-8), human adenocarcinoma of the esophagus (OE33), and human uterine sarcoma (MES-SA, MES-SA-Dx5-Rx1). All cell lines were cultured in RPMI-1640 medium containing 10% FBS, and penicillin-streptomycin (culture medium), in a 5% CO2 incubator (37° C.). To each well of a 96 well plate (Becton, Dickinson and Company, 353219), 75 μL of cell suspension adjusted to a concentration of 4×10^4 cells/mL with the culture medium was added, and the cells were incubated overnight in a 5% CO2 incubator (37° C.). On the next day, 25 μL of Compound (1) in three-fold dilution series suspended in the culture medium was added to each well, and the resultant was incubated for 72 hours in a 5% CO2 incubator (37° C.). Then, cell viability was determined by CellTiter-Glo® Luminescent Cell Viability Assay (Promega) with 2013 EnVision™ Multilabel Reader (Perkin-Elmer, Wellesley, Mass.). Value of the wells containing cells without adding the test compounds was defined as 100% and the value of the wells containing no cells was defined as 0%. […] The P-gp susceptibility was calculated as the ratio of the IC50 value in MES-SA-Dx5-Rx1 cells, which overexpress P-gp, to the IC50 value in MES-SA cells.

In the case of C=C1C[C@@H]2CC[C@@]34C[C@H]5O[C@H]6[C@@H](O3)[C@H]3O[C@H](CC[C@@H]3O[C@H]6C5O4)CC(=O)O[C@@H]3[C@@H](C)[C@@H]4O[C@@H]5C[C@]6(C[C@@H]7O[C@]8(C[C@H](C)[C@@H]9O[C@H](CN)[C@H](O)C[C@@H]9O8)C[C@H](C)[C@@H]7O6)O[C@@H]5C[C@@H]4O[C@H]3C[C@H]3O[C@@H](CC[C@@H]1O2)C[C@@H](C)C3=C [Compound (1)], the IC50 [1] is reported as 0.0668 nM, the “Tumor Regression (%)” value ([2]; 0.09 mg/kg on day 1 and 8 + radiation 18 Gy on day 4 and day 11) is reported as 97% and the “Tumor Regression (%)” value ([2]; 0.09 mg/kg on day 1 and 8, without radiation) is reported as 0%. For the same compound, the “effect on microtubule (MT) dynamics” value [3] was “had the ability to suppress the MT dynamics”, the “time at which comet-like structures of EB3-AG became hard to observe” value ([3]; 0.5 nM, after the addition of the compound) was “around 60 minutes” and the antiproliferative activity [4] was “potent antiproliferative agent”.
